Test results taken from US20240057596A1 (priority 2021, published 2024).
Read-outs that look alike come from different tables or passages of the source.

Tests used:
[1] = test system: Rhizoctonia solani; assay: field trial sheath blight on rice in Thailand, percentage disease; format: in vivo; conditions: 750 g/ha, 2 sprays at 7 day interval; for percentage of disease (%): location L1; for percentage of sheath blight disease (%): location L2
Experimental: A field trial was established to test the efficacy of different compositions for control of sheath blight (Rhizoctonia solani) on rice in Thailand at two locations: L1: Bang Kham, Sriprachan, Suphanburi; and L2: Don Pru, Sriprachan, Suphanburi. Disease inoculation was performed 14 days before 1st spray.
At location L1, experimental design was randomize complete block (RCB); number of different treatments: six as provided in Table 11; number of replications: 4; plot size: 6×5 m/plot; rice variety: PTT1; and spray volume: 312.5 L/ha. One treatment had 4 replications, with one replication having 10 samplings.
Data assessments included percentage of length (cm) of the symptom infected and length of the plant (cm) before 1st spray; before 2nd spray; 7 days after 2nd spray; at 2 weeks after 2nd spray; at 3 weeks after 2nd spray; and at 2 weeks before harvest.
The percentage disease was calculated as follows:
Disease (%)=[length of infection symptom (cm)/length of plant (cm)]×100
At location L2, experimental design was randomize complete block (RCB); number of different treatments: six as provided in Table 11; number of replications: 4; plot size: 6×5 m/plot; rice variety: PTT1; and spray volume: 312.5 L/ha. One treatment had 4 replications, with one replication having 10 samplings.
Data assessments included percentage of length (cm) of the symptom infected and length of the plant (cm) before 1st spray; before 2nd spray; 7 days after 2nd spray; 2 weeks after 2nd spray; at 3 weeks after 2nd spray; and at 2 weeks before harvest.

[2] = test system: rice plants; format: in vivo, rice variety: PTT1; conditions: 750 g/ha; for Yield (kg/plot): plot 9 m2, 120 DAS

In the case of `Cc1cccc2sc3nncn3c12` [Tricyclazole], the “percentage of disease (%)” value ([1]; 2 WBH (106 DAS)) is reported as 35.63 b %, the “percentage of disease (%)” value ([1]; 7 DAA#2 (89 DAS)) is reported as 35.66 bc % and the “percentage of disease (%)” value ([1]; 14 DAA#2 (96 DAS)) is reported as 37.90 c %. For the same compound, the “percentage of disease (%)” value ([1]; 21 DAA#2 (103 DAS)) was 35.89 c %, the “percentage of disease (%)” value ([1]; BA#1 (before 1st spray, 75 DAS)) was 22.57 a % and the “percentage of disease (%)” value ([1]; BA#2 (before 2nd spray, 82 DAS)) was 40.05 bc %. The “percentage of sheath blight disease (%)” value ([1]; 2 WBH (106 DAS)) was 39.11 b %, the “percentage of sheath blight disease (%)” value ([1]; 7 DAA#2 (84 DAS)) was 37.90 bc % and the “percentage of sheath blight disease (%)” value ([1]; 14 DAA#2 (91 DAS)) was 38.71 d %. For the same compound, the “percentage of sheath blight disease (%)” value ([1]; 21 DAA#2 (98 DAS)) was 39.75 d %, the “percentage of sheath blight disease (%)” value ([1]; BA#1 (before 1st spray, 70 DAS)) was 26.10 a % and the “percentage of sheath blight disease (%)” value ([1]; BA#2 (before 2nd spray, 77 DAS)) was 32.67 b %. The “Yield (kg/ha)” value ([2]; location L1) was 5861.11 kg/ha, the “Yield (kg/rai)” value ([2]; location L1) was 937.78 kg/rai and the “Yield (kg/plot)” value ([2]; location L1) was 5.28 kg/plot. For the same compound, the “Yield (kg/ha)” value ([2]; location L2) was 6638.89 ab kg/ha, the “Yield (kg/rai)” value ([2]; location L2) was 1062.22 kg/rai and the “Yield (kg/plot)” value ([2]; location L2) was 5.98 kg/plot.
